Measurements reported in patent publication US20210255193A1, “LYSINE REACTIVE PROBES AND USES THEREOF” (The Scripps Research Institute, priority 2017, published 2021).

Legend:
Test in all cases: competitive isoTOP-ABPP
Assay type in all cases: binding
[1] = target: T1, GABARAPL2 Gamma-aminobutyric acid receptor-associated protei (Homo sapiens, UniProt P60520); conditions: for R value (DMSO/fragment) for probe 1 labeling: P60520_K46; for R value (DMSO/fragment) for probe 1 labeling / isoTOP-ABPP reactivity ratio at lysine P60520_K46 / isoTOP-ABPP ratio (R) at liganded lysine P60520_K46: 50 uM, in vitro; for R value (DMSO/fragment) for probe 1 labeling / isoTOP-ABPP reactivity ratio at lysine P60520_K46: 231 sol; for isoTOP-ABPP ratio (R) at liganded lysine P60520_K46: sol, 231
T1 construct: isoTOP-ABPP experiments performed in cell lysates (in vitro); endogenous in cells; host or cells: soluble proteome of human cancer cell lines (MDA-MB-231, Ramos, Jurkat)
How it was run: (§1)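 Probe: STP-alkyne, 0.1 mM, 1 h RT, after fragment pretreatment of lysate (esters 50 μM; guanidinylators 100 μM). Tags: light = compound, heavy = DMSO, via CuAAC. Replicates averaged if SD <60% of mean; otherwise lowest ratio used when any R <4.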

[2] = target: T2, KIAA1033 WASH complex subunit 7 (Homo sapiens, UniProt Q2M389); conditions: for R value (DMSO/fragment) for probe 1 labeling: Q2M389_K302; for R value (DMSO/fragment) for probe 1 labeling / isoTOP-ABPP reactivity ratio at lysine Q2M389_K302 / isoTOP-ABPP ratio (R) at liganded lysine Q2M389_K302: 50 uM, in vitro; for R value (DMSO/fragment) for probe 1 labeling / isoTOP-ABPP reactivity ratio at lysine Q2M389_K302: 231 sol; for isoTOP-ABPP ratio (R) at liganded lysine Q2M389_K302: sol, 231; for isoTOP-ABPP ratio, lysine Q2M389_K302: 50 uM_231_sol_in vitro
T2 construct: isoTOP-ABPP experiments performed in cell lysates (in vitro); endogenous in cells; host or cells: soluble proteome of human cancer cell lines (MDA-MB-231; Ramos and Jurkat also prepared)
T2 sequence (Q2M389 1-1173): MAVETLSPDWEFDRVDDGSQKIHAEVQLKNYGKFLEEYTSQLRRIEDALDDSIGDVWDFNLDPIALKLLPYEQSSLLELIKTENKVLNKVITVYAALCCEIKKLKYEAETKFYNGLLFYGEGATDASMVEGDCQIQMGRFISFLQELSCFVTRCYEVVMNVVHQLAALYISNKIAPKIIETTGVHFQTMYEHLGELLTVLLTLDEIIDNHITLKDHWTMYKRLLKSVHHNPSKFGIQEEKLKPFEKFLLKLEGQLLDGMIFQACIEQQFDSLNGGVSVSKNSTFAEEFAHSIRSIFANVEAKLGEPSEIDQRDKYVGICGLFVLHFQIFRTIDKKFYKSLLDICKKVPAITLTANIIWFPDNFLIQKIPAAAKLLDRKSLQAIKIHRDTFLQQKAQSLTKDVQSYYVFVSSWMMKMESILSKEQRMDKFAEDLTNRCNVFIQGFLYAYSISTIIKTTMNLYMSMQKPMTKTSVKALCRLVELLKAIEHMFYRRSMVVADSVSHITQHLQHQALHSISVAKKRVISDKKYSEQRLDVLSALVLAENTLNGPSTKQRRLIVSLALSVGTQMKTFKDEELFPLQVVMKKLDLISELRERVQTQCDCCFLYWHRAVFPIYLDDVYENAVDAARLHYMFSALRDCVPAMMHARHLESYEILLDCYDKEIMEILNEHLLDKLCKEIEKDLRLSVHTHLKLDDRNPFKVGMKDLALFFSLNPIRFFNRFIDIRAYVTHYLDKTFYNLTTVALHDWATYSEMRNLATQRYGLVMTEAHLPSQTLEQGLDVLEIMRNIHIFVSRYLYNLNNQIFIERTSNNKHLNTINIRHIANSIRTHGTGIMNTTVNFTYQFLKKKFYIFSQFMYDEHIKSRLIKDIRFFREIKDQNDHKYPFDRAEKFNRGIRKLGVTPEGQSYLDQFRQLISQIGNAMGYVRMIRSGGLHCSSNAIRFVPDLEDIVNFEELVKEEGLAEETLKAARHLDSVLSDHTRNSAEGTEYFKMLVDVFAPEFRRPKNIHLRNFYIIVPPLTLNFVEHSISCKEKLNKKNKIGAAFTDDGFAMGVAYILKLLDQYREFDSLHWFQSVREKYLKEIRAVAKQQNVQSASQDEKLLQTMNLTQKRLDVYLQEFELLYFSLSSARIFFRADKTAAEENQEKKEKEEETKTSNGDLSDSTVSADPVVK
How it was run: as §1

[3] = target: T3, TSTA3 GDP-L-fucose synthase (Homo sapiens, UniProt Q13630); conditions: for R value (DMSO/fragment) for probe 1 labeling: Q13630_K108; for R value (DMSO/fragment) for probe 1 labeling / isoTOP-ABPP reactivity ratio at lysine Q13630_K108 / isoTOP-ABPP ratio (R) at liganded lysine Q13630_K108: 50 uM, in vitro; for R value (DMSO/fragment) for probe 1 labeling / isoTOP-ABPP reactivity ratio at lysine Q13630_K108: 231 sol; for isoTOP-ABPP ratio (R) at liganded lysine Q13630_K108: sol, 231
T3 construct: isoTOP-ABPP experiments performed in cell lysates (in vitro); endogenous in cells; host or cells: soluble proteome of human cancer cell lines (MDA-MB-231, Ramos, Jurkat)
How it was run: as §1

[4] = target: T4, IMPDH1 Inosine-5-monophosphate dehydrogenase 1 (Homo sapiens, UniProt P20839); conditions: for isoTOP-ABPP ratio (R) at liganded lysine P20839_K208: sol, 231
T4 construct: isoTOP-ABPP experiments performed in cell lysates (in vitro); endogenous in cells; host or cells: soluble proteome of human cancer cell lines (MDA-MB-231; Ramos and Jurkat also prepared)
How it was run: as §1

T4 sequence (P20839 whole entry): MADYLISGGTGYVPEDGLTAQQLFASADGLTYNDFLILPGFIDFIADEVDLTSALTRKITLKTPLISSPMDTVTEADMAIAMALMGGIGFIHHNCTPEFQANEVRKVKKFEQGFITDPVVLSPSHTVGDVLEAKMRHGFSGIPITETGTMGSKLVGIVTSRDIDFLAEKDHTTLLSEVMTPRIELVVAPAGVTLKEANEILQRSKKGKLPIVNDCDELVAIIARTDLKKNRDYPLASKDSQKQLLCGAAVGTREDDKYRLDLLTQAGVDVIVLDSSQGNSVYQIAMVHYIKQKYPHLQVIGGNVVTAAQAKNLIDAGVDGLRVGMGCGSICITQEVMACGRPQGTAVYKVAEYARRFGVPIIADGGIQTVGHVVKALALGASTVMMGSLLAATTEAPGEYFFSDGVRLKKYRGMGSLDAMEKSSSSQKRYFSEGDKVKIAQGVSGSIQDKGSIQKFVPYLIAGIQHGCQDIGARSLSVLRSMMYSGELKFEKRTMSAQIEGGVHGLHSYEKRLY
T1 sequence (P60520 1-116 limits assumed): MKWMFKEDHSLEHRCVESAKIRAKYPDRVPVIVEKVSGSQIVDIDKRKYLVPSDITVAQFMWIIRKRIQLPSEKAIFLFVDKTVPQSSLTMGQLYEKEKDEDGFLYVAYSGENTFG
T3 sequence (Q13630 whole entry, the tested form may be a part): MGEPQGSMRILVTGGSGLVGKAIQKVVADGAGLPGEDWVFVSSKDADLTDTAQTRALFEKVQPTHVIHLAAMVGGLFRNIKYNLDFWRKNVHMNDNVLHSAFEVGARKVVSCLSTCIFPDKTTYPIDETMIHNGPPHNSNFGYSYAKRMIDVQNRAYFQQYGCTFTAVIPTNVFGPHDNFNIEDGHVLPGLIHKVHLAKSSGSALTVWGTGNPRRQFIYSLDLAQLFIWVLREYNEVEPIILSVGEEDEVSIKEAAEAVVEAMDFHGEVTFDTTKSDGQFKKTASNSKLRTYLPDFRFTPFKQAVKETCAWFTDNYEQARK

Structure (SMILES): O=C(CCc1cn(-c2ccccc2)nc1-c1ccccc1)Oc1c(F)c(F)c(F)c(F)c1F [fragment 19, Pentafluorophenyl 3-(1,3-diphenyl-1H-pyrazol-4-yl)propanoate]
- R value (DMSO/fragment) for probe 1 labeling [1]: 1.2
- R value (DMSO/fragment) for probe 1 labeling [2]: 0.8
- R value (DMSO/fragment) for probe 1 labeling [3]: 0.8

Structure (SMILES): O=C(Oc1c(F)c(F)c(F)c(F)c1F)C(c1ccccc1)c1ccccc1 [fragment 20, Pentafluorophenyl 2,2-diphenylacetate]
- R value (DMSO/fragment) for probe 1 labeling [1]: 0.9
- R value (DMSO/fragment) for probe 1 labeling [2]: 0.9

Structure (SMILES): O=C(Oc1c(F)c(F)c(F)c(F)c1F)c1cc(C(F)(F)F)cc(C(F)(F)F)c1 [fragment 21, Pentafluorophenyl 3,5-bis(trifluoromethyl)benzoate]
- R value (DMSO/fragment) for probe 1 labeling [1]: 0.8
- R value (DMSO/fragment) for probe 1 labeling [3]: 1.0

Structure (SMILES): Cn1cc(CC(=O)Oc2c(F)c(F)c(F)c(F)c2F)c2ccccc21 [fragment 22, Pentafluorophenyl 2-(1-methyl-1H-indol-3-yl)acetate]
- R value (DMSO/fragment) for probe 1 labeling [1]: 0.8
- R value (DMSO/fragment) for probe 1 labeling [2]: 3.6
- R value (DMSO/fragment) for probe 1 labeling [3]: 1.1

Structure (SMILES): COc1cc(CCC(=O)Oc2c(F)c(F)c(F)c(F)c2F)cc(OC)c1OC [fragment 23, Pentafluorophenyl 3-(3,4,5-trimethoxyphenyl)propanoate]
- R value (DMSO/fragment) for probe 1 labeling [2]: 1.5
- R value (DMSO/fragment) for probe 1 labeling [3]: 1.0

Structure (SMILES): O=C(Oc1c(F)c(F)c(F)c(F)c1F)C1CCN(C(=O)OCc2ccccc2)CC1 [fragment 24, 1-Benzyl 4-(pentafluorophenyl) piperidine-1,4-dicarboxylate]
- isoTOP-ABPP reactivity ratio at lysine Q2M389_K302 [2]: 1.0
- isoTOP-ABPP reactivity ratio at lysine Q13630_K108 [3]: 0.6

Structure (SMILES): O=C(Oc1c(F)c(F)c(F)c(F)c1F)c1ccc2ccccc2n1 [fragment 25, Pentafluorophenyl quinoline-2-carboxylate]
- isoTOP-ABPP reactivity ratio at lysine P60520_K46 [1]: 1.2

Structure (SMILES): O=C(CCc1coc2cc(F)ccc2c1=O)Oc1c(F)c(F)c(F)c(F)c1F [fragment 26, Pentafluorophenyl 3-(7-fluoro-4-oxo-4H-chromen-3-yl)propanoate]
- isoTOP-ABPP reactivity ratio at lysine Q2M389_K302 [2]: 1.8
- isoTOP-ABPP reactivity ratio at lysine Q13630_K108 [3]: 1.4

Structure (SMILES): O=C(CN1C(=O)c2ccccc2C1=O)Oc1c(F)c(F)c(F)c(F)c1F [fragment 27, Pentafluorophenyl 2-(1,3-dioxoisoindolin-2-yl)acetate]
- isoTOP-ABPP reactivity ratio at lysine Q13630_K108 [3]: 4.6

Structure (SMILES): CCn1cc(C(=O)Oc2c(F)c(F)c(F)c(F)c2F)c(=O)c2ccc(C)nc21 [fragment 28, Pentafluorophenyl 1-ethyl-7-methyl-4-oxo-1,4-dihydro-1,8-naphthyridine-3-carboxylate]
- isoTOP-ABPP reactivity ratio at lysine Q13630_K108 [3]: 1.0

Structure (SMILES): O=C(Oc1ccc([N+](=O)[O-])cc1[N+](=O)[O-])C(c1ccccc1)c1ccccc1 [fragment 30, 2,4-Dinitrophenyl 2,2-diphenylacetate]
- isoTOP-ABPP reactivity ratio at lysine P20839_K208 ([4]; 50 uM, 231 sol, in vitro): 1.6
- isoTOP-ABPP reactivity ratio at lysine Q2M389_K302 [2]: 1.6

Structure (SMILES): O=C(Oc1ccc([N+](=O)[O-])cc1[N+](=O)[O-])c1cc(C(F)(F)F)cc(C(F)(F)F)c1 [fragment 31, 2,4-Dinitrophenyl 3,5-bis(trifluoromethyl)benzoate]
- isoTOP-ABPP reactivity ratio at lysine P60520_K46 [1]: 1.2

Structure (SMILES): Cn1cc(CC(=O)Oc2ccc([N+](=O)[O-])cc2[N+](=O)[O-])c2ccccc21 [fragment 32, 2,4-Dinitrophenyl 2-(1-methyl-1H-indol-3-yl)acetate]
- isoTOP-ABPP reactivity ratio at lysine P60520_K46 [1]: 1.1

Structure (SMILES): O=C(Oc1ccc([N+](=O)[O-])cc1[N+](=O)[O-])c1ccc2ccccc2n1 [fragment 35, 2,4-Dinitrophenyl quinoline-2-carboxylate]
- isoTOP-ABPP ratio (R) at liganded lysine P60520_K46 [1]: 0.9
- isoTOP-ABPP ratio (R) at liganded lysine Q2M389_K302 [2]: 1.4

Structure (SMILES): O=C(CCc1coc2cc(F)ccc2c1=O)Oc1ccc([N+](=O)[O-])cc1[N+](=O)[O-] [fragment 36, 2,4-Dinitrophenyl 3-(7-fluoro-4-oxo-4H-chromen-3-yl)propanoate]
- isoTOP-ABPP ratio (R) at liganded lysine P20839_K208 ([4]; 50 uM, in vitro): 1.6
- isoTOP-ABPP ratio (R) at liganded lysine Q2M389_K302 [2]: 1.2

Structure (SMILES): O=C(CC12CC3CC(CC(C3)C1)C2)Oc1ccc([N+](=O)[O-])cc1[N+](=O)[O-] [fragment 38, 2,4-Dinitrophenyl 2-(adamantan-1-yl)acetate]
- isoTOP-ABPP ratio (R) at liganded lysine P60520_K46 [1]: 1.0
- isoTOP-ABPP ratio (R) at liganded lysine P20839_K208 ([4]; 50 uM, in vitro): 1.2
- isoTOP-ABPP ratio (R) at liganded lysine Q13630_K108 [3]: 0.9

Structure (SMILES): O=C(Oc1ccc([N+](=O)[O-])cc1[N+](=O)[O-])c1ccc(Oc2ccccc2)cc1 [fragment 39, 2,4-Dinitrophenyl 4-phenoxybenzoate]
- isoTOP-ABPP ratio (R) at liganded lysine P60520_K46 [1]: 0.8
- isoTOP-ABPP ratio (R) at liganded lysine Q2M389_K302 [2]: 1.2

Structure (SMILES): O=C(Oc1ccc([N+](=O)[O-])cc1[N+](=O)[O-])c1ccccc1Nc1cccc(C(F)(F)F)c1 [fragment 40, 2,4-Dinitrophenyl 2-((3-(trifluoromethyl)phenyl)amino)benzoate]
- isoTOP-ABPP ratio (R) at liganded lysine Q2M389_K302 [2]: 0.9
- isoTOP-ABPP ratio (R) at liganded lysine Q13630_K108 [3]: 0.9

Structure (SMILES): O=C(Oc1ccc([N+](=O)[O-])cc1[N+](=O)[O-])C(c1ccccc1)(c1ccccc1)c1ccccc1 [fragment 42, 2,4-Dinitrophenyl 2,2,2-triphenylacetate]
- isoTOP-ABPP ratio (R) at liganded lysine P60520_K46 [1]: 0.9
- isoTOP-ABPP ratio (R) at liganded lysine P20839_K208 ([4]; 50 uM, in vitro): 1.2
- isoTOP-ABPP ratio (R) at liganded lysine Q13630_K108 [3]: 1.0

Structure (SMILES): CC(=O)Oc1ccc([N+](=O)[O-])cc1[N+](=O)[O-] [fragment 43, 2,4-Dinitrophenyl acetate]
- isoTOP-ABPP ratio (R) at liganded lysine P20839_K208 ([4]; 50 uM, in vitro): 1.3

Structure (SMILES): N#Cc1ccc(C(=O)Oc2ccc([N+](=O)[O-])cc2[N+](=O)[O-])cc1 [fragment 44, 2,4-Dinitrophenyl 4-cyanobenzoate]
- isoTOP-ABPP ratio, lysine P60520_K46 ([1]; 50 uM_231_sol_in vitro): 0.9
- isoTOP-ABPP ratio, lysine Q2M389_K302 [2]: 1.3

Structure (SMILES): O=C(ON1C(=O)CCC1=O)c1cc(C(F)(F)F)cc(C(F)(F)F)c1 [fragment 46, 3,5-Bis(trifluoromethyl)benzoic acid NHS ester]
- isoTOP-ABPP ratio, lysine Q13630_K108 ([3]; 50 uM_231_sol_in vitro): 2.7

Structure (SMILES): O=C(Oc1c(F)c(F)c(C(F)(F)F)c(F)c1F)c1cc(C(F)(F)F)cc(C(F)(F)F)c1 [fragment 47, 2,3,5,6-Tetrafluoro-4-(trifluoromethyl)phenyl 3,5-bis(trifluoromethyl)benzoate]
- isoTOP-ABPP ratio, lysine P60520_K46 ([1]; 50 uM_231_sol_in vitro): 1.0
- isoTOP-ABPP ratio, lysine P20839_K208 ([4]; 50 uM_231_sol_in vitro): 1.2

Structure (SMILES): O=C(Oc1c(F)c(F)cc(F)c1F)c1cc(C(F)(F)F)cc(C(F)(F)F)c1 [fragment 48, 2,3,5,6-Tetrafluorophenyl 3,5-bis(trifluoromethyl)benzoate]
- isoTOP-ABPP ratio, lysine P60520_K46 ([1]; 50 uM_231_sol_in vitro): 0.9

Structure (SMILES): COC(=O)NC(=NC(=O)OCC1c2ccccc2-c2ccccc21)n1cccn1 [fragment 49, N-Methoxycarbonyl-N′-9-fluorenylmethoxycarbonyl-pyrazole-1-carboxamidine]
- isoTOP-ABPP ratio, lysine P60520_K46 ([1]; 100 uM_231_sol_in vitro): 1.9
- isoTOP-ABPP ratio, lysine P20839_K208 ([4]; 100 uM_231_sol_in vitro): 4.4

Structure (SMILES): NC(=O)c1cc(C(F)(F)F)cc(C(F)(F)F)c1 [fragment 51, reference compound]
- isoTOP-ABPP ratio, lysine P60520_K46 ([1]; 50 uM_231_sol_in vitro): 1.0
- isoTOP-ABPP ratio, lysine Q2M389_K302 [2]: 1.5
